According to patent publication US20210380683A1, “MODULATION OF IRF-4 AND USES THEREOF” (THE METHODIST HOSPITAL SYSTEM, priority 2018, published 2021):

Test system: Balb/c heart allograft in WT B6 mice
Assay: Balb/c heart allograft survival in WT B6 recipients
Format: in vivo, mouse
Details: 3 mg/kg every other day from day 0 to day 12; WT B6 recipients of Balb/c hearts
Method: Murine heterotopic heart transplantation. Heart transplantation in mice was performed by a previously described method (Miyahara et al., 2012; Chen et al., 2007). In brief, hearts from Balb/c donors were transplanted into 8 to 10-week-old male WT B6, Irf4^fl/flCd4-Cre, CD45.1+ congenic, or Rag1−/− recipient mice. Pulmonary artery and aorta of donor heart were cut open, remaining heart vessels were tied off, and heart was removed. […] Anastomosis was made by 11-0 sutures running continuously. 6-0 silk thread was removed, and abdomen was then closed by 5-0 sutures in two layers. Heart graft survival was monitored daily by palpation, and the day of complete cessation of heartbeat was considered as the day of rejection. Recipient mice were i.p. injected with Rat IgG, anti-PD-L1 (10F.9G2), anti-CTLA-4 (9D9), anti-CD4 (GK1.5), anti-CD8 (53-6.7), or anti-CD25 (PC-61.5.3) mAbs obtained from Bio-X-Cell (West Lebanon, N.H.), oral gavaged with trametinib (Selleck Chemicals, Houston, Tex.) or corn oil, or i.v. transferred with WT B6, Irf4^−/−, TEa, TEa Irf4^−/−, or IRF4 re-introduced Irf4^−/− T cells. At various days post-transplant, splenocytes and graft infiltrating cells were obtained for flow cytometry analysis, and allografts were sectioned and stained with hematoxylin and eosin for microscopic evaluation.

With `CC(=O)Nc1cccc(-n2c(=O)n(C3CC3)c(=O)c3c(Nc4ccc(I)cc4F)n(C)c(=O)c(C)c32)c1` [trametinib] the “heart allograft survival (MST)” value was 13.17±0.75 days.
